Source: US20250235429A1, “TREATMENT OF DISEASES VIA ADMINISTRATION OF BUNTANETAP AND AN ANTIDIABETIC AGENT” (ANNOVIS BIO, INC., priority 2024, published 2025)

Tests used:
[1] = in vivo; cited from earlier work
[2] = system: APP/PS1 transgenic mice; assay: Contextual fear conditioning (FC), associative memory; format: in vivo; details: Buntanetap 1 mg/Kg and/or dulaglutide 0.1 mg/Kg
Experimental: (§1) Animals: Heterozygous double transgenic mice expressing both human APP (K670N:M671L) and human PS1 (M146L) (line 6.2) and their wild-type non-transgenic littermates, both males and females, were used for these experiments. They were obtained by a breeding colony maintained at the animal facility of Columbia University. They were genotyped through PCR on tail samples. Animals were injected i.p. from the age of […] for 1 month prior to starting behavioral assessment which lasted for 2 weeks during which treatment continued. Behavioral assessment examined spatial and associative memory. Finally, mice were sacrificed for electrophysiological assessment of synaptic function.
Mice were coded to blind investigators with respect to genotype and treatment. Results were expressed with Standard Error of the Mean (SEM). […] Results were analyzed by ANOVA analysis with post-hoc correction with the combination or genotype as main effect. […]
The combination effect on associative memory was assessed through fear conditioning (FC). […] Freezing behavior, defined as the absence of movements except for that needed for breathing, was scored using Noldus software. Contextual fear learning, a type of memory for which hippocampal function is indispensable, was evaluated 24 hrs after training by measuring freezing responses for 5 min in the same chamber where the mice have been trained. […]

[3] = system: APP/PS1 transgenic mice; assay: 2-day radial arm water maze (RAWM), spatial memory; format: in vivo
Experimental: as §1
(§2) Mice were coded to blind investigators with respect to genotype and treatment. Results were expressed with Standard Error of the Mean (SEM). Level of significance was set for p<0.05. Results were analyzed by ANOVA analysis with post-hoc correction with the combination or genotype as main effect. Experiments were designed in a balanced fashion, and mice were trained and tested at each of the different conditions in 3 or 4 separate experiments.
Mice were i.p. injected with the drug from the age of 8 weeks prior to plaque appearance until behavioral assessment that started at 12 weeks of age and lasted for 2 weeks.
Spatial memory was studied with the 2-day radial arm water maze (RAWM) test. The task is a hybrid of the Morris Water Maze (MWM) and the radial arm land maze. The motivation for the animals is immersion in water. The mouse needs to swim in 6 alleys (arms) radiating from a central area until it finds a hidden (submerged) platform at the end of one of the arms, based on visual cues placed in the room. In the old RAWM version of the task, the goal arm varies from day to day, requiring 21 days of training in wild-type mice to reach the learning criterion. In the new version of the task, the goal arm is kept constant for all trials, with a different start arm on successive trials, such that the learning criterion will be reached in 2 days. The first day of the protocol was a training day. Mice were trained to identify the platform location by alternating between a visible and a hidden platform in a goal arm. The final 3 trials on day 1 and all 15 trials on day 2 used a hidden escape platform to force mice to use spatial cues to identify the location of the goal arm. To avoid learning limitations imposed by exhausting practice and to avoid fatigue that may result from consecutive trials, spaced practice training was established by running the mice in cohorts of 4 and alternating different cohorts through the 15 training trials over 3 hours testing periods each day. On day 1, a visible platform was laced in a goal location. Mouse 1 of cohort 1 was gently placed in the pool near the perimeter of the wall of the first start arm (specified on a score sheet) and facing the center of the pool. The number of incorrect arm entries (entries in arms with no platform) was counted. If the animal enters the incorrect arm it was gently pulled back to the start arm. Each trial lasted up to 1 min. Failure to select an arm after 15 sec was counted as an error and the mouse was returned to the start arm. After 1 min, if the platform had not been located, the mouse was guided gently through the water by placing a hand behind it to direct it towards the platform. The mouse rested on the platform for 15 sec. After completing the trial, the mouse was removed from the pool, gently towel dried and placed back into its cage under a heat lamp. The goal platform location was different for each mouse. […] After each mouse from cohort 1 completed six alternating trials between visible and hidden platforms, the mice were left to rest under a heating source, and mice from the second cohort were tested in the same way.

[4] = system: hippocampal slices APP/PS1 transgenic mice; assay: Electrophysiological study: long-term potentiation (LTP) in hippocampal slices; format: in vivo
Experimental: as §1, §2
Mice were i.p. injected with the drug from the age of 8 weeks prior to plaque appearance until euthanasia for collecting slices at the age of 14-16 weeks. The treatment with Buntanetap was daily, whereas the treatment with dulaglutide was twice a week.
Electrophysiological analysis was performed on 400 μm hippocampal slices, cut with a tissue chopper and maintained in an interface chamber at 29° C. for 90 min prior to recording. Briefly, CA1 fEPSPs were recorded by placing both the stimulating and the recording electrodes in CA1 stratum radiatum. Basal synaptic transmission was assayed, either by plotting the stimulus voltages against slopes of fEPSP, or by plotting the peak amplitude of the fiber volley against the slope of the fEPSP. For LTP experiments, a 15 min baseline was recorded every min at an intensity that evokes a response ˜35% of the maximum evoked response. LTP was induced using θ-burst stimulation (4 pulses at 100 Hz, with the bursts repeated at 5 Hz and each tetanus including 3 ten-burst trains separated by 15 see). Data was subjected to statistical analyses to determine the effects of combination on inhibiting synaptic dysfunction.

[5] = APP/PS1 mice, Buntanetap 1 mg/Kg and/or dulaglutide 0.1 mg/Kg

Substance | onset [1] | impairment of associative memory measured through contextual fear conditioning (FC) [2] | % Improvement (RAWM errors) ([3]; APP/PS1, dulaglutide 0.1 mg/kg) [%] | Meran Number of Errors (RAWM) ([3]; APP/PS1, dulaglutide 0.1 mg/kg) | % Improvement (RAWM errors) ([3]; APP/PS1, dulaglutide 0.3 mg/kg) [%] | Meran Number of Errors (RAWM) ([3]; APP/PS1, dulaglutide 0.3 mg/kg) | % Improvement (RAWM errors) ([3]; APP/PS1, dulaglutide 0.6 mg/kg) [%] | Meran Number of Errors (RAWM) ([3]; APP/PS1, dulaglutide 0.6 mg/kg) | impairment of short-term spatial memory measured through the 2-day radial arm water maze (RAWM) [3, 5] | % Improvement (Residual Potential) ([4]; APP/PS1, dulaglutide 0.1 mg/kg) [%] | Residual Potential (mean) ([4]; APP/PS1, dulaglutide 0.1 mg/kg i.p. twice a week) | % Improvement (Residual Potential) ([4]; APP/PS1, dulaglutide 0.3 mg/kg) [%] | Residual Potential (mean) ([4]; APP/PS1, dulaglutide 0.3 mg/kg i.p. twice a week) | % Improvement (Residual Potential) ([4]; APP/PS1, dulaglutide 0.6 mg/kg) [%] | Residual Potential (mean) ([4]; APP/PS1, dulaglutide 0.6 mg/kg i.p. twice a week) | impairment of synaptic plasticity measured through Long-term potentiation (LTP) [4, 5] | peak concentration occurs after administration [1] [h]
Insulin glulisine: insulin commercially available as Apidra® | 5 to 15 min |  |  |  |  |  |  |  |  |  |  |  |  |  |  |  | 
dulaglutide: GLP-1 agonist, commercially available as Trulicity® |  | did not ameliorate | 23.5 | 2.9 | 47.1 | 2.5 | 88.2 | 1.8 | did not ameliorate | 21.4 | 155.52 | 32.3 | 164.68 | 71.1 | 197.26 | did not ameliorate | 
Insulin detemir | about 1 hours |  |  |  |  |  |  |  |  |  |  |  |  |  |  |  | 3 to 14
